In one assay the test system is Anabaena PCC7120. Nature of the assay: In vivo growth in BG-11 media with commercial herbicides. In kind it is cell-based. As to conditions: 100 μM, one week of culture in BG-11 media. Here is the method:
(§1) In vivo resistance of cyanobacteria to PURSUIT® imazethapyr and OUST® sulfometuron methyl. As a preliminary matter, Synechocystis PCC6803 and Anabaenia PCC7120 were tested for susceptibility to PURSUIT® imazethapyr and OUST® sulfometuron methyl. AHAS genes which are resistant to these herbicides are excellent candidates for transformation in plant plastomes and nuclear genomes. Such transformants can be used in a weed control strategy using a combination of transgenic herbicide resistant crops and herbicides.
(§2) In vivo testing of Synechocystis PCC6803 and Anabaena PCC7120 was done by culturing the organisms in varying concentrations of the commercial herbicides. […] For relative comparison purposes a concentration of 1 μM PURSUIT® imazethapyr in agar media is lethal to Arabidopsis plants.

The subject of another assay is Synechocystis PCC6803. Described as above. In kind it is cell-based. As to conditions: 100 μM, one week of culture in BG-11 media. Here is the method: as §1, §2
Another assay relates to Synechocystis AHAS. The assay is described as follows: In vitro AHAS assay. In kind it is biochemical, Synechocystis PCC6803. As to conditions: 100 μM. As to the method:
(§3) AHAS is the target site of both PURSUIT® imazethapyr and OUST® sulfometuron methyl herbicides. To determine if resistance to the herbicides is due to a natural resistance to inhibition of the acetohydroxyacid synthase enzymes from the cyanobacteria, or if it is due to alternative mechanisms (e.g. lack of entry into the cell), the in vitro activity of the AHAS enzyme in the presence of the herbicides was tested.
(§4) AHAS assays were performed with slight modification as described by Singh et. al (Singh B K, Stidham M A, Shaner D L, 1988, Assay for acetohydroxyacid synthase from plants. Anal Biochem 171: 173-179).
(§5) Synechocystis PCC6803 and Anabaena PCC7120 were cultured in 1.5 L of BG-11 media. Cells were collected by centrifuge and stored frozen at −80° C. Frozen cells were thawed and placed in a 30 mL Bead Beater cell disruptor chamber (BioSpec Corp Bartlesville, Okla.). Seven mL of acid washed sand was added. The chamber was filled with 2× ASHA assay buffer, consisting of 100 mM HEPES pH7.0, 200 mM pyruvate, 20 mM MgCl2, 2 mM TPP (Thiamine pyrophosphate) and 100 μM FAD (flavin adenine dinucleotide).
(§6) The Bead Beater cell disruptor was packed in ice and turned on for 10 seconds, followed by cooling for 3 minutes. This cycle was repeated five times. The extract was transferred into a centrifuge tube, and spun in a Beckman SA20 (Beckman, Fullerton, Calif.) rotor for 15 minutes at 17,000 rpms. […]

For the next assay, the system named is Anabaena AHAS. The assay is described as follows: In vitro AHAS assay. In kind it is biochemical, Anabaena PCC7120. As to conditions: 100 μM. As to the method: as §3, §4, §5, §6
In the next assay the test system is Arabidopsis plants. The assay is described as follows: Lethality to Arabidopsis plants in agar media. Type of assay: in vivo. Here is the method: as §2
The next assay concerns Wild type (W-38) tobacco. The assay is described as follows: PURSUIT imazethapyr spray test, wild type tobacco. In kind it is in vivo. As to conditions: 18 g/ha, 5 weeks after the test. Here is the method:
(§7) Observations and photos (FIG. 8) of the PURSUIT® imazethapyr spray test were taken 5 weeks after the test was conducted. […] Leaves assumed a thin, spiny form.

Assay [1] relates to p111 and p112 transplastomic tobacco lines. Nature of the assay: PURSUIT imazethapyr spray test, p111 and p112 lines. As to conditions: 18 g/ha, 5 weeks after the test. In kind it is in vivo. As to the method:
as §7

For a further assay, the system named is p116 line G-981208-1.1. The assay is described as follows: PURSUIT imazethapyr spray test, p116 line. Type of assay: in vivo, tobacco. Here is the method: as §7
Assay [2] concerns AHAS enzyme of pACBC222 line G-981208-1.1. The assay is described as follows: AHAS enzyme assay of transplastomic tobacco line. Type of assay: biochemical. As to conditions: line sprayed with 18 g/ha PURSUIT imazethapyr; assay in the presence of the herbicide.
Assay [3] deals with E. coli M1262 expressing the cyanobacterial ahas gene. Nature of the assay: Growth on minimal media of E. coli M1262 expressing the cyanobacterial ahas gene. In kind it is cell-based. The text has this: To confirm that these plasmids carry functional AHAS sequences, plasmid DNA from each of the ten rescued colonies was transformed into the E. coli strain M1262. (leuB6, ilv1614, ilvH612, λ^−, relA1, spoT1, ilvB619, ilvG603, ilfG605(am), thi-1) (Genetics Stock Center, Yale University). This strain of E. coli is lacking in AHAS. […] The ahas gene can therefore be used for achieving herbicide tolerance in crops by transformation into the nuclear or plastidic genome.

Data on one molecule can be found in US7285701B2, “Cyanobacterial nucleic acid fragments encoding proteins useful for controlling plant traits via nuclear or plastome transformation” (BASF Plant Science GmbH, priority 2001, dated 2007).

Regarding `CCc1cnc(C2=NC(C)(C(C)C)C(=O)N2)c(C(=O)O)c1` (stereo not shown) [PURSUIT® imazethapyr, imazethapyr], the inhibition of growth entry in the assay with Anabaena PCC7120 and with Synechocystis PCC6803 was “No inhibition of growth” throughout. Moreover, the “inhibition of AHAS enzyme” value in the assay on Synechocystis AHAS and with Anabaena AHAS was “No significant inhibition” throughout. In addition, in the assay on Arabidopsis plants, the “concentration lethal to Arabidopsis plants” value amounted to 1 µM. For the same molecule, the spray test observation entry in the assay with Wild type (W-38) tobacco was “wide-spread leaf necrosis and stunting of growth”; in assay [1], “wide-spread leaf necrosis and stunting of growth”. Also, the growth result was “uninhibited” with p116 line G-981208-1.1 (18 g/ha, 5 weeks after the test) and “slight stunting” with p116 line G-981208-1.1 (35 g/ha, 5 weeks after the test). Further, the leaf damage entry in the assay with p116 line G-981208-1.1 (18 or 35 g/ha, 5 weeks after the test) is given as “no visible leaf damage”. The “effect on new shoots and morphology” value in the assay with p116 line G-981208-1.1 (p116 line, prolific shooting and morphological abnormalities in new shoots) is recorded as “strong growth regulator”. Further, the “increase in AHAS enzyme resistance compared with AHAS enzyme from unsprayed wild type tobacco” value in assay [2] is listed as about 20%. Besides, in assay [3], the “growth on minimal media in the presence of the herbicide” value is reported as “capable of growing”.
